Where “and” joins values, the source holds several entries; their conditions need not be identical. Identical values can stand only once. ± gives the expanded uncertainty stated by the source.
Columns and labels:
[1] = Crystal, Calculated from knudsen effusion weight loss
[2] = molar enthalpy of vaporization or sublimation; details: 298.15 K; Crystal; drop calorimetry

O=C(O)C1c2ccccc2Oc2ccccc21 [9H-xanthene-9-carboxylic acid]
[1]
Details | vapor or sublimation pressure
383.08 K | 0.000119 ± 2e-05 kPa and 0.0001121 ± 2e-05 kPa and 0.0001132 ± 2e-05 kPa
385.15 K | 0.0001477 ± 2.1e-05 kPa and 0.0001432 ± 2.1e-05 kPa and 0.0001353 ± 2.1e-05 kPa
387.25 K | 0.0001726 ± 2.1e-05 kPa and 0.0001686 ± 2.1e-05 kPa and 0.0001619 ± 2.1e-05 kPa
389.12 K | 0.0002124 ± 2.1e-05 kPa and 0.0002049 ± 2.1e-05 kPa and 0.0002165 ± 2.1e-05 kPa
391.13 K | 0.0002584 ± 2.2e-05 kPa and 0.0002449 ± 2.2e-05 kPa
393.14 K | 0.0003154 ± 2.3e-05 kPa and 0.0003062 ± 2.3e-05 kPa
395.13 K | 0.0003811 ± 2.4e-05 kPa and 0.0003776 ± 2.4e-05 kPa and 0.0003653 ± 2.4e-05 kPa
397.11 K | 0.0004814 ± 2.6e-05 kPa and 0.0004632 ± 2.6e-05 kPa
399.14 K | 0.0005597 ± 2.8e-05 kPa and 0.0005447 ± 2.8e-05 kPa and 0.0005518 ± 2.8e-05 kPa
401.13 K | 0.0006834 ± 3.1e-05 kPa and 0.0006937 ± 3.2e-05 kPa and 0.0006737 ± 3.1e-05 kPa
403.12 K | 0.0008362 ± 3.6e-05 kPa and 0.0008293 ± 3.6e-05 kPa and 0.0007816 ± 3.4e-05 kPa
405.15 K | 0.0009639 ± 3.9e-05 kPa and 0.0009409 ± 3.9e-05 kPa

Details | molar enthalpy [kcal/mol]
[2] | 30 ± 0.717

NC(=O)C1c2ccccc2Oc2ccccc21 [9H-xanthene-9-carboxamide]
[1]
Details | vapor or sublimation pressure
399.14 K | 0.0001229 ± 2.1e-05 kPa and 0.0001189 ± 2e-05 kPa and 0.000116 ± 2e-05 kPa
401.14 K | 0.000154 ± 2.1e-05 kPa and 0.0001484 ± 2.1e-05 kPa and 0.000144 ± 2.1e-05 kPa
403.16 K | 0.0001893 ± 2.1e-05 kPa and 0.0001856 ± 2.1e-05 kPa and 0.0001767 ± 2.1e-05 kPa
405.15 K | 0.0002159 ± 2.1e-05 kPa and 0.0002174 ± 2.1e-05 kPa
407.19 K | 0.0002731 ± 2.2e-05 kPa and 0.0002662 ± 2.2e-05 kPa
409.17 K | 0.0003106 ± 2.3e-05 kPa and 0.0002981 ± 2.3e-05 kPa and 0.0003072 ± 2.3e-05 kPa
411.15 K | 0.0003968 ± 2.4e-05 kPa and 0.0003833 ± 2.4e-05 kPa
413.19 K | 0.0004758 ± 2.6e-05 kPa and 0.0004828 ± 2.6e-05 kPa and 0.0004614 ± 2.6e-05 kPa
415.15 K | 0.0005574 ± 2.8e-05 kPa and 0.0005463 ± 2.8e-05 kPa
417.17 K | 0.000649 ± 3e-05 kPa and 0.0006492 ± 3e-05 kPa
419.18 K | 0.0007769 ± 3.4e-05 kPa and 0.0008205 ± 3.5e-05 kPa
421.2 K | 0.0009516 ± 3.9e-05 kPa and 0.0009609 ± 3.9e-05 kPa

Details | molar enthalpy [kcal/mol]
[2] | 31.1 ± 1

OC1c2ccccc2Oc2ccccc21 [9H-xanthen-9-ol]
[1]
Details | vapor or sublimation pressure
333.18 K | 6.91e-05 ± 2e-05 kPa and 5.67e-05 ± 2e-05 kPa and 6.28e-05 ± 2e-05 kPa
335.14 K | 8.54e-05 ± 2e-05 kPa and 8.17e-05 ± 2e-05 kPa and 7.79e-05 ± 2e-05 kPa
337.08 K | 0.0001045 ± 2e-05 kPa and 0.0001126 ± 2e-05 kPa and 0.0001038 ± 2e-05 kPa
339.18 K | 0.0001355 ± 2.1e-05 kPa and 0.0001321 ± 2.1e-05 kPa and 0.000152 ± 2.1e-05 kPa
341.13 K | 0.0001838 ± 2.1e-05 kPa and 0.0001813 ± 2.1e-05 kPa and 0.0001645 ± 2.1e-05 kPa
343.08 K | 0.0002256 ± 2.2e-05 kPa and 0.0002318 ± 2.2e-05 kPa and 0.0002156 ± 2.1e-05 kPa
345.08 K | 0.0002616 ± 2.2e-05 kPa and 0.0002749 ± 2.2e-05 kPa and 0.0002595 ± 2.2e-05 kPa
347.14 K | 0.0003355 ± 2.3e-05 kPa and 0.0003321 ± 2.3e-05 kPa and 0.0003104 ± 2.3e-05 kPa
349.17 K | 0.0004364 ± 2.5e-05 kPa and 0.0003742 ± 2.4e-05 kPa and 0.0003877 ± 2.4e-05 kPa
351.07 K | 0.0005411 ± 2.8e-05 kPa and 0.0005557 ± 2.8e-05 kPa and 0.0005348 ± 2.8e-05 kPa
353.12 K | 0.0006853 ± 3.1e-05 kPa and 0.0006411 ± 3e-05 kPa and 0.0006134 ± 3e-05 kPa
355.18 K | 0.0008786 ± 3.7e-05 kPa and 0.0007534 ± 3.3e-05 kPa and 0.0007633 ± 3.4e-05 kPa

— the NIST ThermoML archive (doi:10.1016/j.jct.2012.03.017)
